As usually defined, the Km is the concentration of substrate that gives half-maximal velocity. As usually defined, the EC10 is the point of the concentration-response curve where the effect stands at 10%.

We go through 16 compounds from patent publication US5672470A, “Microbial process for detection of toxic substances” (priority 1994, dated 1997).

Converted amounts (≈) assume the structure as drawn. “And” between values parts separate entries of the source, which are not always exact repeats. Equal entries are not always repeated. Where two headings read alike, the source gives them in different places.

Assay [1] deals with bacteria phosphotransferase system (PTS) of E. coli mutant 1219bgl+. Description: microbe, parasite or virus in culture. The class given is cell-based. As to conditions: for IC50: pH 6.5, read-out: EC50. The source says: Since the phosphotransferase system for the bacterial cell is an essential transport system for the reception of extracellular carbohydrates, a possible inhibition or adverse effect of the participating enzymes should be noticed to cause a reduction in the carbohydrate transport, that is the PTS constitutes a potential possibility for the detection of toxic substances in microorganisms. […] Said analog is of such a nature that it, in phosphorylated form after the cell transport, can be hydrolyzed by an enzyme in the bacterial cell under the release of a substance susceptible to analysis. If, for instance, 2-nitrophenyl-β-D-glucoside is used as substrate analog, this will be channeled by the PTS under phosphorylation into a bacterial cell, where the ONP-Glc-6-P is broken down hydrolytically by the inducible 6-phospho-β-glucosidase B to Glc-6-P and 2-nitrophenyl. The released 2-nitrophenyl can then, by means of photometry, be quantitatively measured as phenolate-anion after a defined time span. Additionally, with E. coli mutant 1219bgl+ a bacterium is present that is characterized by increased β-glycoside activity, yet is not transformed through genetic engineering nor is pathogenic, which is an important prerequisite for harmless work with bacteria.
The test occurs with a total reaction volume of 500 μl in Eppendorf cups, the O.D.578 of the bacteria suspension amounting to 3.0.
The E. coli cultures of the mutant 1219 bgl+, preserved at -20° C., are first thawed to be reactivated during 10 min. at room temperature. They are then suspended in 250 μl of 50 mM buffer and together with the appropriate test solution and distilled water brought to a volume of 480 μl . This suspension is then pre-incubated over a time span of 10-15 minutes at 37° C. After that, the reaction is started by adding 20 μl of ONP-glucose (50 mM) (equivalent to a final concentration in the reaction batch of 2 mM). The reaction mixture is incubated over a time span of 5 minutes at 37° C. After the end of this reaction time the reaction is terminated by adding 1 ml of Na2 CO3 (0.5M). After a 2 minute centrifugation at 17,000×g the substrate transformations of the tested bacteria suspensions are photometrically determined at 405 nm.
The evaluation of the PTS test with ONP-glycosides is done by means of the toxicological characteristic quantity of the "efficient concentration", (the EC value). It is hereinunder understood with such a concentration of added toxic substance that a measurable parameter of an organism will be inhibited to a certain extent within a freely defined time span. The percentage of adverse effect of the parameter to be measured is indicated by the attached index.
The conversion of the registered percentage inhibitory values into EC values is carried out with the help of the gamma method (Johnson, F. H., Eyring, H. and Stover, B. J., 1974; The theory of rate processes in biology and medicine, John Wiley & Sons, New York: 1-385). With the aid of the O.D.405, registered in the PTS inhibition test, the quotient is formed from the ONP-glycoside cleavage output and the remaining ONP-glycoside cleavage. [formula] O.D.405 : Substrate transformation without toxic substance solution. D O.D.405 : Output of the substrate transformation after incubation with the toxic substance solution.
The gamma values hereby obtained are used against the employed concentration of toxic substance, in a double logarithmic representation. […]

In a further assay the test system is Vibrio fischen. To be noted: cited from earlier work.
In assay [2] the test system is E. coli mutant 1219bgl+ PTS. Description: ONP-glycoside cleavage in dependency on substrate concentration (Lineweaver-Burk). The class given is cell-based. To be noted: Lineweaver-Burk process. The method, then:
Looking more closely into the ONP-glycoside cleavage in dependency on substrate concentration, we find the presence of saturation kinetics without substrate inhibition (FIG. 4). […] Since, when increasing the substrate concentration, there was no further velocity increase to be registered, the dosage of the substrate to be used, according to the invention, takes place in accord with a cost and efficiency weighting at 2 mM. When performing the PTS inhibition test, in accordance with the invention, it also turned out that the sensitivity of the test is clearly dependent on the kind of buffer used. It was particularly conspicuous that phosphate buffer has a clearly stimulating effect on the ONP-glycoside hydrolysis, whereas, on the other hand, when performing the inhibition test with heavy metals as toxic substances, the strongest inhibitory effects were to be registered when using the HEPES buffer. It should however be taken into account that a phosphate buffer in the presence of heavy metal salts is less suitable due to solubility problems that then might occur. Therefore when testing heavy metals, the HEPES buffer should preferably be chosen.

The mark [3] stands for this setting: Escherichia coli, pH 6.5, read-out: EC10, organic solvents, 50 mM phosphate buffer pH 6.5.
Setting [4] is: heavy metal ions as chlorides, HEPES buffer pH 6.5, 37° C., 5 min reaction, 5 min.
[5] abbreviates: heavy metal ions as chlorides, HEPES buffer pH 6.5, 37° C., 5 min reaction, read-out: EC50.
Where [6] appears, read: organic solvents, 50 mM phosphate buffer pH 6.5.
Where [7] appears, read: reaction time 10 min, Beckmann, 1980.

For the compound `ClC(Cl)Cl` [Chloroform, chloroform], the IC50 in assay [1] (Escherichia coli, 5 min) worked out at 1900 µg/mL (≈ 15.9 mM). This compound also displayed an EC50 in assay [1] (Escherichia coli, pH 6.5) of 15900 µM. In addition, the IC10 in assay [1] (setting [3]) was 720 µg/mL and 6 µM. Also, in the assay with Vibrio fischen (vibrio fischeri luminescence), the “Bioluminescent Inhibition Test EC50 (ppm)” value is on record as 1,168.
For `Oc1ccccc1` [Phenol, phenol], the IC50 in assay [1] (Escherichia coli, 5 min) amounted to 1400 µg/mL (≈ 14.9 mM). Moreover, the EC50 in assay [1] (Escherichia coli, pH 6.5) came to 14900 µM. Besides, the IC10 in assay [1] (setting [3]) is 350 µg/mL and 3.7 µM. Moreover, the “Bioluminescent Inhibition Test EC50 (ppm)” value with Vibrio fischen (vibrio fischeri luminescence) was 25.
`[Hg+2]` [Hg^2+]: the maximal inhibition result in assay [1] (HEPES buffer pH 6.5) is reported as “about 70%”. Moreover, the EC50 in assay [1] (setting [4]) came out at 2.1 ppm; in assay [1] (setting [5]), 10.3 µM. Besides, the “Bioluminescent Inhibition Test EC50 (ppm)” value in the assay with Vibrio fischen (reaction time 5 min, Bulich et al., 1981) is given as 0.065 ppm.
For `O=[N+]([O-])c1ccccc1O[C@@H]1O[C@H](CO)[C@@H](O)[C@H](O)[C@H]1O` [ONP-glycoside, 2-nitrophenyl-β-D-glucoside], in assay [2], the Km is 2000 µM and the maximal reaction velocity was determined as 42 nmol/min/mL.
With `CCCCCCCCCCCCOS(=O)(=O)O` [SDS], in assay [1] (Escherichia coli, 5 min), the IC50 came out at 13 µg/mL (≈ 0.0488 mM). Further, the EC50 in assay [1] (Escherichia coli, pH 6.5) stood at 45.1 µM. For the same compound, the IC10 in assay [1] (Escherichia coli, pH 6.5, read-out: EC10, detergents, 50 mM HEPES buffer pH 6.5) is 5.5 µg/mL and ~19 µM.
In assay [1] (detergents, 50 mM HEPES buffer pH 6.5, 5 min), Triton X-100 showed an EC50 of 180 ppm.
For `C1COCCO1` [Dioxan, dioxan], the IC50 in assay [1] (Escherichia coli, 5 min) was 30000 µg/mL (≈ 340 mM). Also, in assay [1] (setting [3]), the IC10 is 10000 µg/mL and 114 µM. Moreover, the EC10 result in assay [1] (setting [6]) is “approx. 10,000 ppm”.
Compound `[Cr+3]` [Cr^3+] registered an EC50 in assay [1] (setting [4]) of 16 ppm.
For the compound `ClCCCl` [Dichloroethane, dichloroethane], the “inhibition of ONP-glucose transformation” value in assay [1] (at approx. 3,500 ppm (approximative 35 μM as printed), phosphate buffer pH 6.5, no extrapolation to gamma values possible) is given as “about 30%”.
Consider `[Pb+2]` [Pb^2+], for which the EC50 was 67 ppm in assay [1] (setting [4]) and 322 µM in assay [1] (setting [5]). In addition, the EC10 in assay [1] (heavy metal ions as chlorides, HEPES buffer pH 6.5, 37° C., 5 min reaction, listed as Pb^+) worked out at 120 µM. Moreover, the “Bioluminescent Inhibition Test EC50 (ppm)” value in the assay on Vibrio fischen (reaction time 30 min, Beckmann, 1981) is reported as 0.4 ppm.
Take `[Cd+2]` [Cd^2+]: the EC50 came out at 19 ppm in assay [1] (setting [4]) and 169 µM in assay [1] (setting [5]). In addition, in the assay with Vibrio fischen (setting [7]), the “Bioluminescent Inhibition Test EC50 (ppm)” value was 131 ppm.
As to `[Cu+2]` [Cu^2+], the EC50 in assay [1] (setting [4]) is 11 ppm; in assay [1] (setting [5]) it was 173 µM. The “Bioluminescent Inhibition Test EC50 (ppm)” value in the assay with Vibrio fischen (setting [7]) is reported as 16 ppm.
Regarding `[Ni+2]` [Ni^2+], the maximal inhibition entry in assay [1] (HEPES buffer pH 6.5) is “about 70%”. Also, the EC50 in assay [1] (setting [4]) stood at 4.5 ppm; in assay [1] (setting [5]), 76.6 µM.
With `CCO` [Ethanol, ethanol], in assay [1] (Escherichia coli, 5 min), the IC50 was determined as 33000 µg/mL (≈ 716 mM). Further, the IC10 in assay [1] (setting [3]) was 10500 µg/mL and 288 µM. Also, the EC10 result in assay [1] (setting [6]) was “approx. 10,500 ppm”. Moreover, in the assay on Vibrio fischen (vibrio fischeri luminescence), the “Bioluminescent Inhibition Test EC50 (ppm)” value is listed as 31,000.
`[Zn+2]` [Zn^2+]: the figures for the EC50 in assay [1] (setting [4]) and in assay [1] (setting [5]) were 8 ppm and 122 µM, respectively. For the same compound, the “Bioluminescent Inhibition Test EC50 (ppm)” value in the assay on Vibrio fischen (setting [7]) is given as 25.4 ppm.
For `Cc1ccccc1` [Toluene, toluene], the IC50 in assay [1] (Escherichia coli, 5 min) came out at 35 µg/mL (≈ 0.38 mM). Besides, the EC50 in assay [1] (Escherichia coli, pH 6.5) came to 380 µM.
